A short description of data set [1]: Solubility in aqueous buffer. The class given is physicochemical.
The conditions of data set [2]: mice, cited from earlier work.
The nature of another data set: Pharmacokinetics in mice. The class given is in vivo.

Data on two molecules can be found in paper PMC2832868 (Journal of Medicinal Chemistry, 2010).

Like-named read-outs stand apart in the source and are kept apart here. Marks after values point to notes of the source that are not given here.

In the case of `NC1(Cc2ccc(Cl)cc2)CCN(c2ncnc3[nH]ccc23)CC1` [Compound 2, 4-(4-chlorobenzyl)-1-(7H-pyrrolo[2,3-d]pyrimidin-4-yl)piperidin-4-amine], the “solubility (S) at pH 7” value in data set [1] is recorded as “negligible solubility”. Moreover, the Foral in data set [2] (oral administration of same dose (25 mg kg^−1)) is 8.5%. Further, in data set [2] (plasma, IV dose 25 mg kg^−1), the Clp was 0.33 L/h.

As to `CC(C)(C)c1ccc(CC2(N)CCN(c3ncnc4[nH]ccc34)CC2)cc1` [Compound 10, 4-(4-tert-Butylbenzyl)-1-(7H-pyrrolo[2,3-d]pyrimidin-4-yl)piperidin-4-amine], the Foral in the data set “Pharmacokinetics in mice” (oral administration of same dose (10 mg kg^−1)) is listed as <1 ^c %. The “drug levels following oral dosing” value in “Pharmacokinetics in mice” (oral dosing 10 mg/kg) is “no measurable drug levels”.
